Biological target: GABAA receptor (TBPS binding site), rat brain cortical membranes
Experiment: [35S]-TBPS binding assay, rat brain cortical membranes in the presence of 5 mM GABA
Conditions: inhibition of 3 nM [35S]-TBPS binding
Experimental: [^35S]-t-Butylbicyclophosphorothionate (TBPS) binding assays using rat brain cortical membranes in the presence of 5 mM GABA has been described (Gee et al, J. Pharmacol. Exp. Ther. 1987, 241, 346-353; Hawkinson et al, Mol. Pharmacol. 1994, 46, 977-985; Lewin, A. H et al., Mol. Pharmacol. 1989, 35, 189-194).
Briefly, cortices are rapidly removed following decapitation of carbon dioxide-anesthetized Sprague-Dawley rats (200-250 g). The cortices are homogenized in 10 volumes of ice-cold 0.32 M sucrose using a glass/teflon homogenizer and centrifuged at 1500×g for 10 min at 4° C. The resultant supernatants are centrifuged at 10,000×g for 20 min at 4° C. to obtain the P2 pellets. The P2 pellets are resuspended in 200 mM NaCl/50 mM Na—K phosphate pH 7.4 buffer and centrifuged at 10,000×g for 10 min at 4° C. This washing procedure is repeated twice and the pellets are resuspended in 10 volumes of buffer. Aliquots ([…]) of the membrane suspensions are incubated with 3 nM [^35S]-TBPS and […] aliquots of test drug dissolved in dimethyl sulfoxide (DMSO) (final 0.5%) in the presence of 5 mM GABA. The incubation is brought to a final volume of 1.0 mL with buffer. Nonspecific binding is determined in the presence of […] and ranged from 15 to 25%. Following a 90 min incubation at room temp, the assays are terminated by filtration through glass fiber filters (Schleicher and Schuell No. 32) using a cell harvester (Brandel) and rinsed three times with ice-cold buffer. Filter bound radioactivity is measured by liquid scintillation spectrometry. Non-linear curve fitting of the overall data for each drug averaged for each concentration is done using Prism (GraphPad). […] The concentration of test compound producing 50% inhibition (IC50) of specific binding and the maximal extent of inhibition (Imax) are determined for the individual experiments with the same model used for the overall data and then the means±SEM.s of the individual experiments are calculated.
Various compounds are or can be screened to determine their potential as modulators of [^35S]-TBPS binding in vitro. These assays are or can be performed in accordance with the above

For CCOC[C@@]1(O)CC[C@H]2[C@H](CC[C@@H]3[C@@H]2CC[C@]2(C)[C@@H](C(=O)Nc4ncccc4C(F)(F)F)CC[C@@H]32)C1 [Example 3, (3R,5R,8R,9R,10S,13S,14S,17S)-3-(ethoxymethyl)-3-hydroxy-13-methyl-N-(3-(trifluoromethyl)pyridin-2-yl)hexadecahydro-1H-cyclopenta[a]phenanthrene-17-carboxamide], the IC50 was 100 to 1000 nM.
In the case of COC[C@@]1(O)CC[C@H]2[C@H](CC[C@@H]3[C@@H]2CC[C@]2(C)[C@@H](C(=O)Nc4ccc(C#N)nc4Cl)CC[C@@H]32)C1 [Example 42], the IC50 is reported as less than 100 nM.
Work on COC[C@@]1(O)CC[C@H]2[C@H](CC[C@@H]3[C@@H]2CC[C@]2(C)[C@@H](C(=O)Nc4cccc(C)n4)CC[C@@H]32)C1 [Example 38] yielded an IC50 of less than 100 nM.
COC[C@@]1(O)CC[C@H]2[C@H](CC[C@@H]3[C@@H]2CC[C@]2(C)[C@@H](C(=O)Nc4ccc(-n5ccc(C)n5)nc4C)CC[C@@H]32)C1 [Example 52] showed an IC50 of less than 100 nM.
Molecule CCOC[C@@]1(O)CC[C@H]2[C@H](CC[C@@H]3[C@@H]2CC[C@]2(C)[C@@H](C(=O)Nc4ccncc4)CC[C@@H]32)C1 [Example 1, (3R,5R,8R,9R,10S,13S,14S,17S)-3-(ethoxymethyl)-3-hydroxy-13-methyl-N-(pyridin-4-yl)hexadecahydro-1H-cyclopenta[a]phenanthrene-17-carboxamide] has an IC50 of less than 100 nM.
Molecule CCOC[C@@]1(O)CC[C@@]2(CC)[C@@H](CC[C@H]3[C@@H]4CC[C@H](C(=O)Nc5ccc(C#N)cn5)[C@@]4(C)CC[C@@H]32)C1 [Example 12, (3R,5S,8S,9S,10S,13S,14S,17S)-N-(5-cyanopyridin-2-yl)-3-(ethoxymethyl)-10-ethyl-3-hydroxy-13-methylhexadecahydro-1H-cyclopenta[a]phenanthrene-17-carboxamide] has an IC50 of less than 100 nM.
In the case of CCC[C@@]1(O)CC[C@@]2(C)[C@H](CC[C@@H]3[C@@H]2CC[C@]2(C)[C@@H](C(=O)Nc4ccc(C#N)cn4)CC[C@@H]32)C1 [Example 68, (3R,5R,8R,9S,10S,13S,14S,17S)-N-(5-cyanopyridin-2-yl)-3-hydroxy-10, 13-dimethyl-3-propylhexadecahydro-1H-cyclopenta[a]phenanthrene-17-carboxamide], the IC50 is reported as less than 100 nM.
COC[C@@]1(O)CC[C@H]2[C@H](CC[C@@H]3[C@@H]2CC[C@]2(C)[C@@H](C(=O)Nc4nc(C)ccc4Cl)CC[C@@H]32)C1 [Example 44] was tested, and the IC50 was 100 to 1000 nM.
For CCOC[C@@]1(O)CC[C@H]2[C@H](CC[C@@H]3[C@@H]2CC[C@]2(C)[C@@H](C(=O)Nc4ccc(C#N)nn4)CC[C@@H]32)C1 [Example 29], the IC50 was less than 100 nM.
In the case of CCOC[C@@]1(O)CC[C@H]2[C@H](CC[C@@H]3[C@@H]2CC[C@]2(C)[C@@H](C(=O)Nc4ccnn4C4CCCC4)CC[C@@H]32)C1 [Example 55], the IC50 is reported as less than 100 nM.
CCOC[C@@]1(O)CC[C@H]2[C@H](CC[C@@H]3[C@@H]2CC[C@]2(C)[C@@H](C(=O)Nc4cc(C#N)nn4C)CC[C@@H]32)C1 [Example 37] gave an IC50 of less than 100 nM.
Cc1nc2n(c1NC(=O)[C@H]1CC[C@H]3[C@@H]4CC[C@@H]5C[C@](C)(O)CC[C@@H]5[C@H]4CC[C@]13C)CCCC2 [Example 13, (3R,5R,8R,9R,10S,13S,14S,17S)-3-hydroxy-3,13-dimethyl-N-(2-methyl-5,6,7,8-tetrahydroimidazo[1,2-a]pyridin-3-yl)hexadecahydro-1H-cyclopenta[a]phenanthrene-17-carboxamide] showed an IC50 of 100 to 1000 nM.
Molecule COC[C@@]1(O)CC[C@H]2[C@H](CC[C@@H]3[C@@H]2CC[C@]2(C)[C@@H](C(=O)Nc4cccnc4C)CC[C@@H]32)C1 [Example 51] has an IC50 of less than 100 nM.
For CCOC[C@@]1(O)CC[C@H]2[C@H](CC[C@@H]3[C@@H]2CC[C@]2(C)[C@@H](C(=O)Nc4c5c(nn4C)CCCC5)CC[C@@H]32)C1 [Example 54], the IC50 was 100 to 1000 nM.
With CCOC[C@@]1(O)CC[C@@]2(CC)[C@H](CC[C@H]3[C@@H]4CC[C@H](C(=O)Nc5ccc(C#N)cn5)[C@@]4(C)CC[C@@H]32)C1 [Example 33] the IC50 was less than 100 nM.
Molecule CCOC[C@@]1(O)CC[C@H]2[C@H](CC[C@@H]3[C@@H]2CC[C@]2(C)[C@@H](C(=O)Nc4ccc(C#N)nc4C)CC[C@@H]32)C1 [Example 27] has an IC50 of less than 100 nM.
Work on CCOC[C@@]1(O)CC[C@H]2[C@H](CC[C@@H]3[C@@H]2CC[C@]2(C)[C@@H](C(=O)Nc4nc(C#N)ccc4C)CC[C@@H]32)C1 [Example 61] yielded an IC50 of 100 to 1000 nM.
CCOC[C@@]1(O)CC[C@H]2[C@H](CC[C@@H]3[C@@H]2CC[C@]2(C)[C@@H](C(=O)Nc4cncc(C#N)n4)CC[C@@H]32)C1 [Example 58] was tested, and the IC50 was less than 100 nM.
CCOC[C@@]1(O)CC[C@H]2[C@H](CC[C@@H]3[C@@H]2CC[C@]2(C)[C@@H](C(=O)Nc4ccccn4)CC[C@@H]32)C1 [Example 20] showed an IC50 of less than 100 nM.
CCOC[C@@]1(O)CC[C@@]2(C)[C@H](CC[C@@H]3[C@@H]2CC[C@]2(C)[C@@H](C(=O)Nc4ccc(C#N)cn4)CC[C@@H]32)C1 [Example 31] was tested, and the IC50 was less than 100 nM.
Molecule CCOC[C@@]1(O)CC[C@@]2(CC)[C@H](CC[C@H]3[C@@H]4CC[C@H](C(=O)Nc5cc(C#N)nn5C)[C@@]4(C)CC[C@@H]32)C1 [Example 35] has an IC50 of less than 100 nM.
Work on CCOC[C@@]1(O)CC[C@@]2(CC)[C@H](CC[C@H]3[C@@H]4CC[C@H](C(=O)Nc5cnc(C#N)cn5)[C@@]4(C)CC[C@@H]32)C1 [Example 11, (3R,5R,8S,9S,10S,13S,14S,17S)-N-(5-cyanopyrazin-2-yl)-3-(ethoxymethyl)-10-ethyl-3-hydroxy-13-methylhexadecahydro-1H-cyclopenta[a]phenanthrene-17-carboxamide] yielded an IC50 of less than 100 nM.
With COC[C@@]1(O)CC[C@H]2[C@@H](CC[C@@H]3[C@@H]2CC[C@]2(C)[C@@H](C(=O)Nc4cccc(C)n4)CC[C@@H]32)C1 [Example 7, (3R,5S,8R,9R,10S,13S,14S,17S)-3-hydroxy-3-(methoxymethyl)-13-methyl-N-(6-methylpyridin-2-yl)hexadecahydro-1H-cyclopenta[a]phenanthrene-17-carboxamide] the IC50 was less than 100 nM.
With CCOC[C@@]1(O)CC[C@H]2[C@H](CC[C@@H]3[C@@H]2CC[C@]2(C)[C@@H](C(=O)Nc4ncc(C#N)cc4C)CC[C@@H]32)C1 [Example 23] the IC50 was 100 to 1000 nM.
CCOC[C@@]1(O)CC[C@@]2(CC)[C@H](CC[C@H]3[C@@H]4CC[C@H](C(=O)Nc5cc(C#N)n(C)n5)[C@@]4(C)CC[C@@H]32)C1 [Example 36] showed an IC50 of less than 100 nM.
Molecule COC[C@@]1(O)CC[C@H]2[C@H](CC[C@@H]3[C@@H]2CC[C@]2(C)[C@@H](C(=O)Nc4ccc(C)nc4Cl)CC[C@@H]32)C1 [Example 43] has an IC50 of less than 100 nM.
C[C@]12CC[C@H]3[C@@H](CC[C@@H]4C[C@H](O)CC[C@@H]43)[C@@H]1CC[C@@H]2C(=O)Nc1cnc(C#N)cn1 [Example 14, (3R,5R,8R,9R,10S,13S,14S,17S)-N-(5-cyanopyrazin-2-yl)-3-hydroxy-13-methylhexadecahydro-1H-cyclopenta[a]phenanthrene-17-carboxamide] was tested, and the IC50 was less than 100 nM.
CCOC[C@@]1(O)CC[C@H]2[C@H](CC[C@@H]3[C@@H]2CC[C@]2(C)[C@@H](C(=O)Nc4cccnc4)CC[C@@H]32)C1 [Example 21] gave an IC50 of 100 to 1000 nM.
CCOC[C@@]1(O)CC[C@H]2[C@H](CC[C@@H]3[C@@H]2CC[C@]2(C)[C@@H](C(=O)Nc4cnc(C#N)cn4)CC[C@@H]32)C1 [Example 28] gave an IC50 of less than 100 nM.
Molecule CCOC[C@@]1(O)CC[C@@]2(CC)[C@H](CC[C@H]3[C@@H]4CC[C@H](C(=O)Nc5cc(C)nn5C)[C@@]4(C)CC[C@@H]32)C1 [Example 8, (3R,5R,8S,9S,10S,13S,14S,17S)-N-(1,3-dimethyl-1H-pyrazol-5-yl)-3-(ethoxymethyl)-10-ethyl-3-hydroxy-13-methylhexadecahydro-1H-cyclopenta[a]phenanthrene-17-carboxamide] has an IC50 of less than 100 nM.
CCOC[C@@]1(O)CC[C@H]2[C@H](CC[C@@H]3[C@@H]2CC[C@]2(C)[C@@H](C(=O)Nc4c(C#N)cnn4C)CC[C@@H]32)C1 [Example 57] showed an IC50 greater than 1000 nM.
Molecule CCOC[C@@]1(O)CC[C@H]2[C@H](CC[C@@H]3[C@@H]2CC[C@]2(C)[C@@H](C(=O)Nc4nc(C)ccc4C)CC[C@@H]32)C1 [Example 59] has an IC50 of 100 to 1000 nM.
